Reference: US20220162262A1, “NOVEL COMPOUNDS AND THERAPEUTIC USES THEREOF” (priority 2019, published 2022)
Positions of bridges follow the written chain, without caps; N, C: chain ends. Non-standard residues stand in square brackets, D forms with d. Residues, ends and D or L forms follow the SMILES beside them. *: point of attachment. X1 = CC(=O)NC1[C@H](OCCCNC(=O)COc2cc(C(=O)*)cc(-c3ccccc3)c2)OC(CO)[C@@H](O[C@@H]2OC(CO)[C@H](O)[C@H](O[C@H]3OC(CO)[C@H](O)C(O)[C@@H]3O)C2O)[C@@H]1O; X2 = CC(=O)NC1C(O)[C@H](OC2OC(CO)C(O)[C@H](O[C@H]3OC(CO)C(O)C(O)C3O)C2O)C(CO)O[C@H]1OCCCNC(=O)COc1cc(C(=O)*)cc(-c2ccccc2)c1; PEG8 = NCCOCCOCCOCCOCCOCCOCCOCCOCCC(=O)O; Gly(octyl) = CCCCCCCC[C@H](N)C(=O)O; Dab = NCC[C@H](N)C(=O)O; Dap = NC[C@H](N)C(=O)O; Ahx = NCCCCCC(=O)O

Columns and labels:
Format in all cases: cell-based
[1] = system: K. pneumoniae (NCTC 13465); test: Flow cytometric anti-Gal IgM antibody recruitment assay, K. pneumoniae; settings: for IgM Recruitment (20 μM, Average fold change) K. pneumoniae NCTC 134655: 20 μM compound, anti-Gal M86 IgM, MFI fold shift over vehicle control; for K. pneumoniae recruitment assay, side by side comparison with reference example (FIG. 2): 20 μM, in triplicate
Protocol: (§1) Flow Cytometric Antibody Recruitment Assay Using an Anti-Galα1-3Galβ1-4GlcNAc (Anti-Gal) Antibody
(§2) A secondary fluorescently labelled anti-IgM antibody was used to detect the anti-Gal antibody binding.
(§3) The assays were carried out in polystyrene 96-well U bottom plates (Costar). Frozen stocks of bacteria in mid-exponential phase were thawed, centrifuged and resuspended in LB broth, Miller (Fisher BP1426-500) at OD595=0.2. The bacteria was grown to mid-exponential phase (OD595=0.4), washed once with Hank's Balanced Salt Solution with calcium and magnesium (HBSS+/+) and then resuspended in HBSS+/+ at a bacterial D595=0.6. Bacteria was diluted ⅙ and placed in the 96-well U bottom plate. The bacteria were then incubated for 45 minutes with the compounds of Example 1-4 and reference compounds A-D (see Table 1) at 20 μM concentrations, Polymyxin B at 20 μM concentrations, or buffer alone (vehicle control), at room temperature and shaking at 450 rpm. The bacteria were then washed three times with 200 μL HBSS+/+, prior to adding 50 μL of the mouse/human chimeric anti-Gal IgM antibody M86 (Absolute Antibody Ab00532) at a final concentration of 25 μg/mL in HBSS+/+. The samples were incubated for 1 hour at room temperature shaking at 450 rpm. The bacteria were washed three times as above, prior to adding 100 μL of a FITC-labeled anti-human IgM secondary antibody (Biolegend 314506) at 10 μg/mL in HBSS+/+ and incubating at room temperature for 1 hour at 450 rpm. After three final washes with 200 μL HBSS+/+, the bacteria were resuspended in 200 μL HBSS+/+ and evaluated for anti-Gal antibody binding on a Cytoflex flow cytometer (Beckman Coulter). 50,000 counts of bacterial particles were sampled and the median fluorescent shift was recorded in the FITC-A channel. Data from all samples were analysed using Kaluza software (Beckman Coulter).
(§4) The fold shift over background was calculated by dividing the Median Fluorescent Intensity (MFI) obtained in the presence of 20 μM of the Example compounds by the MFI value obtained in the vehicle controls, i.e., the absence of Examples. The higher the fold shift over background, the more anti-Gal was bound to the bacterial surface. The shift in fluorescence intensity (FITC) occurs due to the binding event at each end of the molecule.
as §4, with “compounds (10 μM for Reference Example A and Example 2 against P. aeruginosa ATCC 27853, 6 μM for Reference Example A and Example 2 against P. aeruginosa PAO1 ATCC 15692)” for “compounds”

[2] = system: E. coli K1:018ac:H7 (ATCC 700973); test: Flow cytometric anti-Gal IgM antibody recruitment assay, E. coli; settings: for E. coli recruitment assay, side by side comparison with reference example (FIG. 2): 20 μM, in triplicate, E. coli ATCC 700973
Protocol: as §1, §2, §3, §4
(§5) The fold shift over background was calculated by dividing the Median Fluorescent Intensity (MFI) obtained in the presence of 20 μM of the Example compounds (10 μM for Reference Example A and Example 2 against P. aeruginosa ATCC 27853, 6 μM for Reference Example A and Example 2 against P. aeruginosa PAO1 ATCC 15692) by the MFI value obtained in the vehicle controls, i.e., the absence of Examples. […] The shift in fluorescence intensity (FITC) occurs due to the binding event at each end of the molecule.

[3] = system: P. aeruginosa (ATCC 27853); test: Flow cytometric anti-Gal IgM antibody recruitment assay, P. aeruginosa ATCC 27853; settings: for IgM Recruitment (20 μM, Average fold change) P. aeruginosa ATCC 27853: 20 μM compound, anti-Gal M86 IgM, MFI fold shift over vehicle control
Protocol: as §1, §2, §3, §4, §5

Row | Compound | IgM Recruitment (20 μM, Average fold change) K. pneumoniae NCTC 134655 [1] | K. pneumoniae recruitment assay, side by side comparison with reference example (FIG. 2) [1] | E. coli recruitment assay, side by side comparison with reference example (FIG. 2) [2] | IgM Recruitment (20 μM, Average fold change) P. aeruginosa ATCC 27853 [3] | IgM Recruitment (20 μM, Average fold change) E. coli K1 ATCC700973 ([2]; 20 μM compound, anti-Gal M86 IgM, MFI fold shift over vehicle control) | P. aeruginosa recruitment assay, side by side comparison with reference example (FIG. 2C) ([3]; 20 μM, in triplicate)
1 | CCCCCCCC[C@H](NC(=O)CCOCCOCCOCCOCCOCCOCCOCCOCCNC(=O)c1cc(OCC(=O)NCCCO[C@@H]2OC(CO)[C@@H](O[C@@H]3OC(CO)[C@H](O)[C@H](O[C@H]4OC(CO)[C@H](O)C(O)[C@@H]4O)C3O)[C@H](O)C2NC(C)=O)cc(-c2ccccc2)c1)C(=O)N[C@@H](CCN)C(=O)N[C@H](C(=O)N[C@@H](CN)C(=O)N[C@H]1CCNC(=O)[C@H]([C@@H](C)O)NC(=O)[C@H](CCN)NC(=O)[C@H](CCN)NC(=O)[C@H](CC(C)C)NC(=O)[C@@H](Cc2ccccc2)NC(=O)[C@H](CCN)NC1=O)[C@@H](C)O (stereo partly shown) [Example 4] ({X1-PEG8}-[Gly(octyl)][Dab]T[Dap][Dab][Dab][dF]L[Dab][Dab]T; lactam 5-C) | 898 (n = 2) fold change | superiority over Reference Example D | superiority over Reference Example D | – | – | –
2 | Polymyxin B [PMB, reference compound] | 1 (n = 2) fold change | – | – | 1 (n = 5) fold change | 1 (n = 5) fold change | –
3 | CCCCCCCC[C@H](NC(=O)CCCCCNC(=O)CCCCCNC(=O)c1cc(OCC(=O)NCCCO[C@@H]2OC(CO)[C@@H](OC3OC(CO)C(O)[C@H](O[C@H]4OC(CO)C(O)C(O)C4O)C3O)C(O)C2NC(C)=O)cc(-c2ccccc2)c1)C(=O)N[C@@H](CCN)C(=O)N[C@H](C(=O)N[C@@H](CCN)C(=O)N[C@H]1CCNC(=O)[C@H]([C@@H](C)O)NC(=O)[C@H](CCN)NC(=O)[C@H](CCN)NC(=O)[C@H](CC(C)C)NC(=O)[C@@H](Cc2ccccc2)NC(=O)[C@H](CCN)NC1=O)[C@@H](C)O (stereo partly shown) [Example 1] ({X2-Ahx-Ahx}-[Gly(octyl)][Dab]T[Dab][Dab][Dab][dF]L[Dab][Dab]T; lactam 5-C) | – | – | superiority over Reference Example B | 391 (n = 2) fold change | – | –
4 | CCCCCCCC[C@H](NC(=O)CCOCCOCCOCCOCCOCCOCCOCCOCCNC(=O)c1cc(OCC(=O)NCCCO[C@@H]2OC(CO)[C@@H](O[C@@H]3OC(CO)[C@H](O)[C@H](O[C@H]4OC(CO)[C@H](O)C(O)[C@@H]4O)C3O)[C@H](O)C2NC(C)=O)cc(-c2ccccc2)c1)C(=O)N[C@@H](CCN)C(=O)N[C@H](C(=O)N[C@H](CO)C(=O)N[C@H]1CCNC(=O)[C@H]([C@@H](C)O)NC(=O)[C@H](CCN)NC(=O)[C@H](CCN)NC(=O)[C@H](CC(C)C)NC(=O)[C@@H](Cc2ccccc2)NC(=O)[C@H](CCN)NC1=O)[C@@H](C)O (stereo partly shown) [Example 3] ({X1-PEG8}-[Gly(octyl)][Dab]T[dS][Dab][Dab][dF]L[Dab][Dab]T; lactam 5-C) | 1015 (n = 4) fold change | superiority over Reference Example C | superiority over Reference Example C | 1491 (n = 4) fold change | – | superiority over Reference Example C
